Source: US5738998A, “Compositions and methods for diagnosing schizophrenia” (priority 1995, dated 1998)

Test system: Chinese hamster ovary cells without the D4 receptor
Assay: [35S]GTPγS binding to G proteins in CHO cells without the D4 receptor
Assay type: cell-based
Settings: CHO cells without the D4 receptor (FIG. 5B)
Excerpt: FIGS. 5A and 5B illustrate graphic representations of the effect of cycloleucine on spontaneous G protein binding of [^35 S]GTPγS.

NC1(C(=O)O)CCCC1 [cycloleucine]
spontaneous [35S]GTPγS binding: inability
